According to publication PMC3723855, “R31C GNRH1 Mutation and Congenital Hypogonadotropic Hypogonadism” (PLoS ONE, 2013):
Entries after “also recorded” stand apart in the source; their conditions may differ. Where two headings read alike, the source gives them in different places.

Columns and labels:
[1] = system: GnRH-R; assay: Binding after pre-incubation and washout (covalent binding test), transfected COS-7 cells; parameters: species or system human; conditions: for covalent binding to receptor / subsequent binding of radiolabeled GnRH analog after pre-incubation and washing: WT GnRH 10^−8 M or R31C GnRH 10^−5 M, 2 h, 4°C, washed, 1 h, two experiments in triplicate
Description: Figure 2 Binding of WT and R31C GnRH to the GnRH receptor (GnRH-R). […] Data are the means of two experiments performed in triplicate.
We hypothesized that the cysteine in position 8 of the R31C GnRH might form disulfide bridges with cysteine residues in the receptor that are not in disulfide bridges. There are three such cysteines: cysteine 218, cysteine 279 and cysteine 317. In order to examine this possibility the effects of R31C GnRH pre-incubation on subsequent binding of a radio-labelled GnRH analog was examined. […] After treatment, the cells were extensively washed to remove all non-covalently bound peptide.

[2] = system: human GnRH receptor; assay: SRE-coupled luciferase assay in HEK293T cells co-transfected with human GnRH receptor; type: cell-based; conditions: for EC50: human GnRH receptor
Description: Figure 3 SRE-coupled luciferase assay. (A) HEK293T cells were exposed to graded concentrations of wild type (WT) GnRH, R31C and equimolar concentrations of WT + R31C during five hours. Luciferase activity arbitrary units by luminometry (a.u.) have been shown as ratio on beta-galactosidase activity by optical density used as transfection efficiency internal control. This experience was conducted eight times. (B) Representation of individual values of EC-50 (calculated with Arcsin “P” root transformation) from n = 8 dose-response experiments.
luc2P/SRE/Hygro plasmid (Promega, Madison, WI) was used to test luciferase production in response to MAP kinase activation as a reporter gene system. HEK293T cells (1.2×10^4 cells/well) were seeded 72 h before testing in high-glucose Dulbecco's minimal essential medium (DMEM, Invitrogen, Cergy Pontoise, France) containing 2 mM glutamine, 100 IU/mL penicillin, […] streptomycin, and 10% heat-inactivated fetal calf serum at 37°C in 96-well plates. Twenty-four hours before testing, cells were co-transfected in serum free OptiMEM, using Lipofectamine 2000 (Invitrogen, Cergy Pontoise, France) with the plasmids for human GnRH receptor, luc2P/SRE/Hygro and pMIR-REPORT™ beta-galactosidase vector (Applied Biosystems, Foster City, CA). […] After 5 h-incubation cells were harvested and assayed for luciferase activities as previously described, using a luminometer (Victor, Perkin Elmer, Waltham, MA). To standardize for transfection efficiency, the relative light units were normalized by the galactosidase activity at optical density. EC-50 and Emax values were calculated using Graphpad Prism (GraphPad Software Inc).

[3] = system: LbetaT2 cells; assay: Intracellular calcium mobilization (Fura2) in LbetaT2 cells; type: cell-based, murine; conditions: for calcium mobilisation: 10 nM, LbetaT2 cells
Description: Figure 5 Effect of treatments on intracellular calcium mobilization. Cells were loaded with Fura 2-AM. At the time of the experiment 100 µM EGTA was added 30 sec before addition of 300 µM of CaCl2 (Ca^2+) to the medium as indicated, and cells were then stimulated with 10 nM of wild type (WT), mutant (R31C) or equimolar combination (10 nM WT +10 nM R31C) or vehicle for 3 min. In the upper panel, representative curves of single cell recording. Each experiment mean was analysed using One-way ANOVA followed by Tukey's Multiple comparison test. In the lower panels, histograms show the means ± SEM (n = 4) of the response to ligands as calcium peak and as area under the curve (AUC). […] Representative of at least three independent experiments, *p<0.05.
LbetaT2 cells were kept in serum free medium overnight and then loaded with 2 µM Fura2-AM for 45 min at 37°C. The experiment was conducted in HEPES buffer (in mM; 116 NaCl, 5.6 KCl, 1.2 MgCl2, 5 NaHCO3, 1 NaH2PO4, 20 HEPES ph 7.4) in presence of extracellular Ca^2+ (EGTA 100 µM + CaCl2 300 µM). Single images of fluorescent emission at 510 nm under excitation at 340 and 380 nm were taken every 5 Sec. Changes in [Ca^2+]i in response to GnRHs were monitored using the Fura2 340/380 fluorescence ratio. Basal ratio was arbitrarily considered as 1. Ca^2+ responses over basal level were given either as maximal rise of [Ca^2+]i or as area under the curve (for 2 min after agonist addition).

[4] = system: LH (LbetaT2 cells); assay: LH secretion from LbetaT2 cells; type: cell-based, murine; conditions: for LH secretion versus WT GnRH: 10 nM R31C; for LH secretion over baseline: 10 nM, four experiments in duplicates, p<0.001 for WT, p = 0.042 for R31C
Description: Figure 7 Effects of treatments on lhb transcription and LH secretion. (A) LbetaT2 cells were starved overnight in serum-free DMEM and treated either by 10 nM WT, R31C, 10 nM WT +10 nM R31C peptides or vehicle. After five hours treatment cells were lysed for RNA extraction (Trizol®). Mouse lhb levels were analyzed by quantitative real time RT-qPCR. Values are expressed as individual ratios on 18S and represented as fold induction on vehicle as means ± SEM, **p<0.01. This experience was conducted n = 7 times in duplicates. (B) LH concentrations from LbetaT2 cells culture media. Cells were starved overnight in serum-free DMEM and incubated with 10 nM WT, 10 nM R31C, 10 nM WT +10 nM R31C, or vehicle for 5 hours. LH levels were measured by a combined rat/mouse RIA. Values are expressed as individual values and as means ± SEM, *p<0.05, ***p<0.001. The experiment was conducted four times and each sample was assayed in duplicates.
LbetaT2 cells were starved overnight in serum-free DMEM. The test day cells were exposed to 10 nM WT, R31C, the combination of 10 nM of each peptide or vehicle during five hours. Cell culture supernatants were collected and rapidly stored at −80°C. In cell culture media, LH concentration was measured using a previously described […] method with reagents supplied by Dr. Parlow (National Hormone and Peptide Program, Harbor-UCLA Medical Center, Torrance, CA). The minimum detectable LH concentration was 0.2 ng/ml, and the interassay coefficient of variation was less than 10%.

[5] = R31C 10^−10 M to 10^−6 M in combination with WT GnRH at 10^−9 M
[6] = 10 nM R31C, 3 min, EGTA 100 µM + CaCl2 300 µM, n = 4, p<0.05

| Compound | receptors occupied in pre-incubation ([1]; R31C GnRH (10^−5 M in method and Fig. 2B), determined from the competition binding study) [%] | covalent binding to receptor / subsequent binding of radiolabeled GnRH analog after pre-incubation and washing [1] | maximal stimulation / agonism, SRE-luciferase ([2]; HEK293T, 5 h, R31C compared with WT) | EC50 ([2]; HEK293T, 5 h, n = 8 dose-response experiments, Arcsin "P" root transformation, spread not defined, p<0.0001, read-out: EC-50, SRE-luciferase (Fig. 3B)) [µM] | impact of added R31C GnRH on SRE-luciferase with WT GnRH [2, 5] | SRE-luciferase activity / potency ([2]; R31C GnRH versus WT) | reduction of R31C agonist versus WT, SRE-luciferase ([2]; R31C versus WT, dose-response curves) [fold] | calcium area under the curve (AUC) versus WT [3, 6] | calcium peak versus WT [3, 6] | calcium mobilisation [3] | calcium mobilisation ([3]; listed as R31C peptide) | impact of added R31C GnRH on Ca2+ signaling with WT GnRH [3, 5] | LH secretion versus WT GnRH ([4]; 5 hours) | LH secretion versus WT GnRH ([4]; 5 hours, listed as R31C peptide) | influence of R31C GnRH on stimulation of LH secretion by WT GnRH ([4]; 10 nM WT + 10 nM R31C, 5 hours) | LH secretion over baseline ([4]; 5 hours) | impact of added R31C GnRH on LH secretion with WT GnRH [4, 5] | receptors occupied in pre-incubation ([1]; WT GnRH at 10^−8 M) [%] | EC50 ([2]; HEK293T, 5 h, p<0.0001 WT vs R31C, read-out: EC-50, SRE-luciferase) [µM] |
| --- | --- | --- | --- | --- | --- | --- | --- | --- | --- | --- | --- | --- | --- | --- | --- | --- | --- | --- | --- |
| CC(C)C[C@H](NC(=O)CNC(=O)[C@H](Cc1ccc(O)cc1)NC(=O)[C@H](CO)NC(=O)[C@H](Cc1c[nH]c2ccccc12)NC(=O)[C@H](Cc1c[nH]cn1)NC(=O)[C@@H]1CCC(=O)N1)C(=O)N[C@@H](CS)C(=O)N1CCC[C@H]1C(=O)NCC(N)=O [R31C GnRH] | 50 | does not form covalent disulfide bonds with the receptor | full agonist; also recorded: able to elicit the same maximal stimulation | 0.313 ± 0.13 | failed to have any impact | very low activity | ~100 | significantly reduced compared to WT; also recorded: significantly lower than WT | significantly reduced compared to WT; also recorded: significantly lower than WT | very low activity | weaker responses | failed to have any impact | very low activity | weaker responses | unable to influence | significantly stimulated LH secretion | failed to have any impact | – | – |
| CC(C)C[C@H](NC(=O)CNC(=O)[C@H](Cc1ccc(O)cc1)NC(=O)[C@H](CO)NC(=O)[C@H](Cc1c[nH]c2ccccc12)NC(=O)[C@H](Cc1c[nH]cn1)NC(=O)[C@@H]1CCC(=O)N1)C(=O)N[C@@H](CCCNC(=N)N)C(=O)N1CCC[C@H]1C(=O)NCC(N)=O [WT GnRH, reference compound] | – | can be fully removed from the receptor | – | – | – | – | – | – | – | rapid and transient calcium mobilisation | – | – | – | – | – | strongly stimulated LH secretion over baseline | – | 50 | 0.004 |
